# Results reported in patent US10793567B2, “Bicyclic inhibitors of histone deacetylase” (Rodin Therapeutics, Inc., priority 2017, dated 2020).
# Tested on: human myeloid progenitors (CFU-GM)
# Assay: Myeloid CFU assay (colony forming cell assay, bone marrow)
# Format: cell-based
# Conditions: 14 days in culture
# Description: Compounds were tested to evaluate the potential effects on human erythroid and myeloid progenitors using colony forming cell assays. Clonogenic progenitors of human erythroid (CFU-E, BFU-E), granulocyte-monocyte (CFU-GM) and multipotential (CFU-GEMM) lineages were assessed in a semi-solid methylcellulose-based media formulation containing rhlL-3 (10 ng/mL), rhGM-SCF (10 ng/mL), rhSCF (50 ng/mL) and Epo (3 U/mL).
# Normal human bone marrow light density cells derived from normal bone marrow (NorCal Biologics, California), were stored in the gaseous phase of liquid nitrogen (−152° C.) until required for the assay. On the day of the experiment, the cells were thawed rapidly, the contents of each vial was diluted in 10 mL of Iscove's modified Dulbecco's medium containing 10% fetal bovine serum (IMDM+10% FBS) and washed by centrifugation (approximately 1200 r.p.m. for 10 minutes, room temperature). The supernatant was discarded and the cell pellets resuspended in a known volume of IMDM+10% FBS. A cell count (3% glacial acetic acid) and viability assessment (trypan blue exclusion test) was performed for the bone marrow sample.
# On the day of the experiment, the compounds were dissolved in DMSO to a stock concentration of 10 mM. Serial dilutions were prepared from the stock concentration to achieve concentrations of 2 and 0.4 mM. When added to the methylcellulose-based media at 1:1000 (v/v), the final test concentrations of 10, 2 and 0.4 μM were achieved. Additionally, 5-FU was evaluated at 1.0, 0.1 and 0.01 μg/mL.
# Clonogenic progenitors of the human erythroid (CFU-E and BFU-E) and myeloid (CFU-GM) lineages were set up in the methylcellulose-based media formulations described above. All compounds were added to the medium to give the final desired concentrations (10, 2 and 0.4 μM). 5-Fluorouracil (Sigma Aldrich) was used as a positive control for progenitor proliferation (inhibition of colony growth) and was introduced to the human bone marrow cultures at 1.0, 0.1, and 0.01 μg/mL. Solvent control cultures (containing no compound but 0.1% DMSO) as well as standard controls (containing no compound and no DMSO) were also initiated.
# Human myeloid and erythroid progenitor assays were initiated at 2.0×10^4 cells per culture. Following 14 days in culture, myeloid and erythroid colonies were assessed microscopically and scored by trained personnel. The colonies were divided into the following categories based on size and morphology: CFU-E, BFU-E, CFU-GM and CFU-GEMM.
# The mean±one standard deviation of three replicate cultures was calculated for progenitors of each category (CFU-E, BFU-E, etc.). Two-tailed t-tests were performed to assess if there was a difference in the number of colonies generated between solvent control and treated cultures. Due to the potential subjectivity of colony enumeration, a p value of less than 0.01 is deemed significant. To calculate the concentration of 50% inhibition of colony growth (IC50) for each compound, a dose response curve was generated plotting the log of the compound concentration versus the percentage of control colony growth using XLfit software (IDBS). The concentration of 50% inhibition of colony growth (IC50) was calculated based on the sigmoid curve fit using Dose-Response, One-Site Model formula: y=A+[(B−A)/(1+((C/x)^D))], where A=the initial value (baseline response), B=maximum response, C=center (drug concentration that provokes a response halfway between A and B) and D=slope of the curve at midpoint. Further, plots and additional dose response curves were generated using GraphPad Prism 7.0.
# Erythroid (CFU-E and BFU-E), myeloid (CFU-GM) and multi-potential (CFU-GEMM) colony enumeration was performed by trained personnel. The distribution of colony types as well as general colony and cellular morphology was analyzed. For statistical analysis colony numbers in compound treated cultures were compared to the solvent control cultures. […]
row,Myeloid % control @ 10 uM dose,Compound
1,102%,CCc1cc2c(cn1)CN(C(=O)Nc1nc(-c3cccnc3)ccc1N)C2 [Compound 8]
2,87%,Cc1ncc2c(n1)CN(C(=O)Nc1nc(-c3ccc(F)s3)ccc1N)C2 [Compound 2]
3,54%,Nc1ccc(-c2ccc(F)cc2)nc1NC(=O)N1Cc2cn(C3COC3)nc2C1 [Compound 1]
4,79.1%,CCc1ncc2c(n1)CN(C(=O)Nc1nc(-c3ccc(F)cc3)ccc1N)C2 [Compound 17]
5,89.4%,CCc1ncc2c(n1)CN(C(=O)Nc1nc(-c3cccs3)ccc1N)C2 [Compound 3]
6,112%,Cc1ncc2c(n1)CN(C(=O)Nc1nc(-c3ccc(F)cc3)ccc1N)C2 [Compound 14]
7,104%,Cc1cc2c(cn1)CN(C(=O)Nc1nc(-c3cccnc3)ccc1N)C2 [Compound 12]
8,62.8%,COCCn1cc2c(n1)CN(C(=O)Nc1nc(-c3ccc(F)cc3F)ccc1N)C2 [Compound 9]
